Assay results reported in patent publication EP3323415A1, “TREATMENT OF NEURODEGENERATIVE DISEASES” (Institut du Cerveau et de la Moelle Épinière-ICM, priority 2016, dated 2018).

System: midbrain DA (TH^+) neurons
Assay: Spontaneous dopaminergic (DA) cell death model in midbrain cultures
Type: cell-based, Wistar rat
Conditions: chronic treatments for 10 days
Protocol: Animals were treated in accordance with the Guide for the Care and Use of Laboratory Animals (National Research Council, 1996), European Directive 86/609, and the guidelines of the local institutional animal care and use committee. Cultures were prepared from the ventral mesencephalon of gestational age 15.5 Wistar rat embryos (Janvier Breeding Center, Le Genest St Isle, France). Dissociated cells in suspension obtained by mechanical trituration of midbrain tissue pieces were seeded at a density of 1.2-1.5 10^5 cells/ cm^2 onto tissue culture supports precoated with 1 mg/ml polyethylenimine diluted in borate buffer pH 8.3 as described (Michel PP, et al., J Neurochem. 1997 Oct;69(4):1499-507). The cultures were then maintained in N5 medium supplemented with 5 mM glucose, 5% horse serum, and 0.5% fetal calf serum, except for the first 3 days in vitro (DIV), when the concentration of fetal calf serum was 2.5% to favor initial maturation of the cultures (Guerreiro S, et al., Mol Pharmacol. 2008 Oct;74(4):980-9). They were fed daily by replacing 70% of the medium. […]
We used a model system in which DA cell loss was spontaneous. […] For the spontaneous dopaminergic cell death model, TH^+ neurons were counted while for the neuro-inflammation model, the number of microglial cells was evaluated. […]

With `CC(=O)OCOC(=O)c1ccc[n+]([C@@H]2O[C@H](COP(=O)(O)OP(=O)(OCOC(C)=O)OC[C@H]3O[C@@H](n4cnc5c(N)ncnc54)[C@H](OP(=O)(OCOC(C)=O)OCOC(C)=O)[C@@H]3O)[C@@H](O)[C@H]2O)c1` (stereo partly drawn) [compound 2, 1-((2R,3R,4S,5R)-5-((((((acetoxymethoxy)(((2R,3R,4R,5R)-5-(6-amino-9H-purin-9-yl)-4-((bis(acetoxymethoxy)phosphoryl)oxy)-3-hydroxytetrahydrofuran-2-yl)methoxy)phosphoryl)oxy)(hydroxy)phosphoryl)oxy)methyl)-3,4-dihydroxytetrahydrofuran-2-yl)-3-((acetoxymethoxy)carbonyl)pyridin-1-ium] the optimal neuroprotective concentrations was 1 µM.
`Nc1ncnc2c1ncn2[C@@H]1O[C@H](COP(=O)(O)OP(=O)(O)OC[C@H]2O[C@@H]([n+]3cccc(C(=O)[O-])c3)[C@H](O)[C@@H]2O)[C@@H](O)[C@H]1OP(=O)(O)O` [compound 1, 1-[(2R,3R,4S,5R)-5-[[[[(2R,3R,4R,5R)-5-(6-aminopurin-9-yl)-3-hydroxy-4-phosphonooxyoxolan-2-yl]methoxy-hydroxyphosphoryl]oxy-hydroxyphosphoryl]oxymethyl]-3,4-dihydroxyoxolan-2-yl]pyridin-1-ium-3-carboxylic acid] was tested, and the optimal neuroprotective concentrations was 30 µM.
